These are literature values, as cited in US6596297B2, “Biodegradable microbicidal vaginal barrier device” (New York Blood Center, Inc., priority 2002, dated 2003).

The subject of this series is HIV-1.

In the case of Nonoxynol-9 [N-9], the “risk of sexual transmission of HIV-1” value was “increase the risk of sexual transmission of HIV-1”.
